Reference: patent US20040167226A1, “Methods for the treatment of pain and traumatic injury using benzamides and compositions containing the same” (priority 2002, published 2004)

Legend:
[1] = tested on: contused spinal cord injury; experiment: Spinal cord injury, contusion model, BBB locomotor score; type: in vivo, Sprague-Dawley rats; details: SCI Study No. 4; 14 day contusion; rats; 20 mg/kg BID i.p., 75% PEG200 formulation
Procedure: Compound A was tested in both the rat dorsal hemisection (Guth, L. et al. (1980), J. Neurosurgery 52: 73-86) and contusion models (Scheff, S. W. (2003), J. Neurotrauma 20: 179-193) for evaluation of efficacy. These models are widely used in the field of spinal cord injury and replicate many of the pathological aspects found in humans who have sustained a spinal cord injury. Rats were subjected to an experimental spinal cord injury at T8, and were given Compound A shortly thereafter. Behavioral tests to assess the locomotion deficits were performed after the lesion. At the end of the experiment, animals were sacrificed and the spinal cord was collected for histopathological analysis. […] Histological assessment of the tissue at the site of injury was also made in both the drug treated and untreated group. […]
The BBB score is a 21-point scale representing 21 stages of locomotor recovery after spinal cord injury. The scale is based on unique combinations of scored behaviors, ranked according to time of appearance after injury. […]

[2] = PK parameter estimates, 30 mg/kg po in 1% methyl cellulose; type: in vivo, rats
Description: The time course of plasma concentration of compound N is depicted in FIG. 1 as well.

iNOS = experiment: Immunohistochemistry for inflammatory marker iNOS on contused spinal cord; type: in vivo; details: rats after contusion injury; 72 h post-injury, 1 mm caudal to epicenter
Procedure: Compound A was tested in both the rat dorsal hemisection (Guth, L. et al. (1980), J. Neurosurgery 52: 73-86) and contusion models (Scheff, S. W. (2003), J. Neurotrauma 20: 179-193) for evaluation of efficacy. These models are widely used in the field of spinal cord injury and replicate many of the pathological aspects found in humans who have sustained a spinal cord injury. Rats were subjected to an experimental spinal cord injury at T8, and were given Compound A shortly thereafter. Behavioral tests to assess the locomotion deficits were performed after the lesion. At the end of the experiment, animals were sacrificed and the spinal cord was collected for histopathological analysis. […] Histological assessment of the tissue at the site of injury was also made in both the drug treated and untreated group. In particular, subsequent to the behavioral measurement, spinal cord tissue from each animal was obtained and serial transverse tissue sections were stained with either anti-neurofilament antibody or antibodies specific for the inflammatory markers, tumor necrosis factor alpha (TNFα) and for the inducible form of nitric oxide synthetase (iNOS), followed by incubation with Alexa Fluor®-conjugated secondary antibodies.
Histological assessment of the tissue at the site of injury was also made in both the drug treated and untreated group. […]

[3] = Brain-blood distribution of Compound A in the rat; type: in vivo; details: brain / whole blood, single po dose 30 mg/kg, n = 5, read-out: Brain/Blood Ratio (Mean ± SD)
Procedure: Blood-brain distribution of Compound A was assessed in the mouse, rat, and squirrel monkey by determining the concentrations of Compound A in blood and brain tissue at specific times post dose. Rats and mice received a single po dose of 30 mg/kg. The monkeys received a twice-daily 10 mg/kg po dose of Compound A for a total of 5 weeks prior to sacrifice. Brain to blood ratios for Compound A, as shown below in Table 4, show high penetration of the blood-brain barrier.

[4] = rat, plasma, rats, 30 mg/kg po in 1% methyl cellulose, n = 3

For `CC(=O)Nc1ccc(C(=O)NC(C)(C)C)cc1` [Compound A, N-tert-butyl-4-acetamidobenzamide], the “functional neurological outcome, BBB score” value [1] was “no significant effects were observed”, the “bioavailability (in words)” value ([2]; additional series of bioavailability experiments) was “excellent bioavailability” and the AUC(0-inf) [2, 4] was 745 µg·h/mL. It also gave a Cmax [2, 4] of 34000 ng/mL, a Tmax [2, 4] of 8 h and a half-life ([2]; rat, plasma, rats, 30 mg/kg po in 1% methyl cellulose, n = 3, read-out: Elim.t1/2 (converted)) of 11 h. The “inflammatory marker iNOS in the region of the corticospinal tract vs untreated control” value (iNOS) was “decreased”, the Kp at 0.5 h ([3]; 0.5 h post-dose) was 0.71 ± 0.03 and the Kp at 1 h ([3]; 1.0 h post-dose) was 0.66 ± 0.02. For the same compound, the Kp at 2 h ([3]; 2.0 h post-dose) was 0.67 ± 0.03.
